Measurements: patent publication US20250197461A1, “Insect-derived short peptide for improving abscisic acid (ABA) content in cruciferous plant” (Gannan Normal University, priority 2023, published 2025)

Tested on: Arabidopsis thaliana
Test: Phytohormone detection in Arabidopsis thaliana leaves treated with short peptide (LC-MS/MS)
Assay type: in vivo
Conditions: 0.01 mg/mL; for ABA content / JA content: compared with GFP control group
Procedure: A synthetic short peptide of GSS1-PI with the corresponding concentration and mass was weighed and dissolved in 0.1% DMSO to obtain a 0.01 mg/mL treatment solution. A wild-type Arabidopsis thaliana plant of about four weeks old was taken, two cotyledons were collected and mechanically damaged to obtain three small holes, 2 μL of the GSS1-PI treatment solution was added dropwise into each small hole, while the control group was a solution of the same concentration prepared by synthesizing an unrelated short peptide GFP group (GFP-28aa: […], SEQ ID NO: 20) of the same length. After 24 h and 48 h of treatment, approximately 0.2 g of Arabidopsis thaliana leaves were collected, and each treatment had three biological replicates. The leaves were quickly placed in liquid nitrogen and stored in a −80° C. ultra-low temperature refrigerator for subsequent phytohormone group detection.
• a. The cryopreserved biological samples were ground with a grinder (30 Hz, 1 min) until they were in a powder form. • b. 50 mg of the ground sample was weighed and added with 10 μL of an internal standard mixed solution with a concentration of 100 ng/ml and 1 mL of an extractant including methanol/water/formic acid (15:4:1, v/v/v), and mixed well. • c. After vortexing for 10 min, a resulting mixture was centrifuged at 4° C. and 12,000 r/min for 5 min, and a resulting supernatant was transferred to a new centrifuge tube for concentration. • d. After concentration, the concentrated solution was reconstituted with 100 μL of 80% methanol/water solution, the reconstituted solution was filtered through a 0.22 μm filter, and the filtrate was placed in a sampling bottle for LC-MS/MS analysis.
The data acquisition instrument system mainly included ultra-performance liquid chromatography (UPLC) (ExionLC™ AD, //sciex.com.cn/) and tandem mass spectrometry (MS/MS) (QTRAP® 6500+, //sciex.com.cn/).
Liquid phase conditions mainly included: • 1) Chromatographic column: Waters ACQUITY UPLC HSS T3 C18 column (1.8 μm, 100 mm×2.1 mm i.d.); • 2) Mobile phase: phase A, ultrapure water (added with 0.04% acetic acid); phase B, acetonitrile (added with 0.04% acetic acid); • 3) Gradient elution program: 0 min A/B at 95:5 (V/V), 1.0 min A/B at 95:5 (V/V), 8.0 min at 5:95 (V/V), 9.0 min at 5:95 (V/V), 9.1 min at 95:5 (V/V), 12.0 min at 95:5 (V/V); • 4) Flow rate: 0.35 mL/min; column temperature: 40° C.; injection volume: 2 μL.
Electrospray ionization (ESI) ion source temperature was 550° C., the mass spectrometer voltage in the positive ion mode was 5,500 V, the mass spectrometer voltage in the negative ion mode was-4,500 V, and the curtain gas (CUR) was 35 psi. In the Q-Trap 6500+, each ion transition was scanned based on optimized declustering potential (DP) and collision energy (CE).
The quantificative analysis was accomplished using the multiple reaction monitoring mode (MRM, as shown below) of triple quadrupole mass spectrometry. […] And the non-target ion interference was eliminated, so that the quantification was more accurate and reproducible. After obtaining the mass spectrometry data of different samples, the chromatographic peaks of all target substances were integrated and quantitatively analyzed through the standard curve.

Which ABA content (24 h treatment) does the source give for “PDYKQKLRDSKAWESLETIGIPLDADVM (insect-derived short peptide) [GSS1-PI]” here?
Its ABA content is “increased significantly”.

And the JA content (24 h treatment)?
Its JA content is “increased significantly”.

And the ABA content (48 h treatment)?
Its ABA content is “upward trend but no significant difference”.

And the JA content (48 h treatment)?
The JA content was “downward trend”.

And the SA content (before and after treatment)?
Its SA content is “no significant change”.
